Data reported in the supplement of paper PMC8882468.
“And” between values parts separate entries of the source, which are not always exact repeats. Equal values may be shown once.

Tests used:
HCI-005.E2 [1] = organoid from a breast cancer xenograft with a HER2-positive history; test: CTG-3D luminescence at 96 h relative to day-0 seeding control (ratio to day 0); higher = more growth / less cytotoxicity
Description: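 PDX-derived breast cancer organoids (PDxO) in 384-well Matrigel plates, 8-point dose (0.000000625-100 uM), 96 h at 37 C; CellTiter-Glo 3D luminescence normalised to the day-0 seeding control (mean of 4 technical replicates over mean of 4 day-0 wells).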

HCI-001 = organoid from a triple-negative breast cancer xenograft; test: CTG-3D luminescence at 96 h relative to day-0 seeding control (ratio to day 0); higher = more growth / less cytotoxicity; PDxO 3D drug screen (set 2), 96 h, CTG-3D normalised to day-0 seeding control.
HCI-027 = organoid from a triple-negative breast cancer xenograft; test: as above
HCI-024 = organoid from a breast cancer xenograft; test: as above
HCI-003.E2 = organoid from an ER-positive breast cancer xenograft; test: as above
HCI-005.E2 [2] = test: as above
MDA-MB-231 = test: as above

O=c1[nH]cc(F)c(=O)[nH]1 [5-fluorouracil]
HCI-005.E2 [1]
Settings	CTG-3D luminescence at 96 h
12.5 pM	1.91
0.00025 µM	1.66
0.005 µM	1.64
0.1 µM	2.48
1 µM	1.78
10 µM	1.18
100 µM	0.891
625 fM	1.69

O=C(c1cc(Cc2n[nH]c(=O)c3ccccc23)ccc1F)N1CCN(C(=O)C2CC2)CC1 [olaparib]
CTG-3D luminescence at 96 h
Settings	12.5 pM	0.00025 µM	0.005 µM	0.1 µM	1 µM	10 µM	100 µM	625 fM
HCI-001, days in culture: 365	2.29	1.96	2.13	2.28	2.05	2.04	1.96	1.74
HCI-001, days in culture: 397	1.71	2.02	2	1.8	2.31	2.16	1.24	1.26
HCI-001, days in culture: 401	1.69	1.42	1.54	1.68	1.23	1.73	1.26	1.62
HCI-024, days in culture: 202	0.819	0.984	0.907	1.28	0.775	1.01	0.38	1.05
HCI-024, days in culture: 231	0.787	0.983	0.972	1.27	1.78	1.27	0.836	1.4
HCI-024, days in culture: 254	1.65	1.41	1.28	1.24	1.88	1.07	0.671	1.54
HCI-027, days in culture: 145	1.79	3.31	2.66	1.56	1.71	2.13	0.976	1.89
HCI-027, days in culture: 158	1.27	3.16	2.16	2.6	1.87	3.12	1.79	3.17
HCI-027, days in culture: 164	4.1	1.37	2.13	2.08	1.58	0.874	0.555	2.58
HCI-027, days in culture: 176	3.94	1.97	1.54	1.61	2.6	0.771	0.452	1.65
HCI-027, days in culture: 186	0.87	1.38	2.3	3.57	1.26	1.58	0.34	3.34

CTG-3D luminescence at 96 h
Settings	12.5 pM	0.00025 µM	0.005 µM	0.1 µM	1 µM	10 µM	100 µM	625 fM
HCI-003.E2	2.72	2.74	2.72	2.75	2.24	1.27	0.0215	2.79
HCI-005.E2 [2]	1.62	2.3	2.07	2.39	2.1	1.27	0.485	2.24
MDA-MB-231	5.57 and 5.09	5.62 and 5.21	5.57 and 5.41	5.38 and 5.09	5.15 and 5.11	4.31 and 4.38	3.27 and 2.33	5.41 and 5.09

CC(=O)c1c(C)c2cnc(Nc3ccc(N4CCNCC4)cn3)nc2n(C2CCCC2)c1=O [palbociclib]
CTG-3D luminescence at 96 h
Settings	12.5 pM	0.00025 µM	0.005 µM	0.1 µM	1 µM	10 µM	100 µM	625 fM
HCI-001, days in culture: 365	2.73	2.25	2.7	2.64	2.4	1.89	1.62	2.11
HCI-001, days in culture: 397	1.74	2.12	2.31	2.47	2.46	2	1.24	1.26
HCI-001, days in culture: 401	1.54	2.13	1.58	1.85	1.33	1.58	0.962	1.63
HCI-024, days in culture: 202	0.831	0.703	1.17	1.26	1.7	1.1	0.337	1.22
HCI-024, days in culture: 231	0.919	0.896	1.34	0.956	1.09	0.74	0.498	1.21
HCI-024, days in culture: 254	1.24	1.36	0.864	0.919	1.17	1.25	0.688	2.68
HCI-027, days in culture: 145	1.41	2.02	1.64	1.26	1.55	0.841	0.458	1.58
HCI-027, days in culture: 158	1.35	1.77	2.1	1.52	0.941	0.942	0.608	3.32
HCI-027, days in culture: 164	2.57	1.87	1.48	1.63	1.33	1.31	0.892	2.8
HCI-027, days in culture: 176	3.61	2.85	1.73	2.1	1.82	0.641	0.373	2.61
HCI-027, days in culture: 186	1.11	1.93	2.5	2.42	0.412	1.4	0.411	1.67

CTG-3D luminescence at 96 h
Settings	12.5 pM	0.00025 µM	0.005 µM	0.1 µM	1 µM	10 µM	100 µM	625 fM
HCI-003.E2	2.52	2.44	2.53	2.82	2.21	1.92	0.594	2.88
HCI-005.E2 [2]	1.84	2.56	2.41	3.06	2.51	2.16	0.934	2.38
MDA-MB-231	5.2	5.24	5.27	5.18	5.16	4.35	1.02	5.32
